One block for each compound: values may come before it.
What was measured:
[1] = stated in Introduction without reference; cited from earlier work
[2] = test system: CT26 cells; assay: Biotin competition cellular uptake assay; format: cell-based, mouse; settings: CT26, biotin 772 μM to 3.09 mM, 24 h
Procedure: Figure 3 (A) Time-course evaluation of cellular uptake for BBC-IP, BBC, and BPA in A549, B16, CT26, MDA-MB-231, and U87MG cells. Compounds were incubated for 2.5, 6, and 24 h in cells, and boron concentration was measured using inductively coupled plasma optical emission spectroscopy (ICP-OES) after ashing with conc. HNO3. Data are shown as the mean ± SEM from a single experiment conducted in triplicate. (B) Biotin concentration-dependent cell uptake study of BBC-IP, BBC and BPA in CT26 cells. Boron concentration was determined after incubation with compounds at various concentrations of biotin for 24 h. (C) Intracellular distribution of BBC-IP in CT26 cells. Cells were incubated with BBC-IP (ca. 25 μg [B]/mL) for 3 h, followed by […] using an anti-closo-dodecaborate antibody and lysosomal staining with Lysotracker. Red: lysosomes stained with LysoTracker Red DND-99; Green: BBC-IP localization; Blue: nuclei stained with DAPI. Scale bars: 25 μm. (D) Intracellular distribution of BPA in CT26 cell lines. Cells were incubated with BPA (ca. 25 μg [B]/mL) for 3 h, followed by fluorescent modification with a boron sensor,[24] nucleus staining with NucleoSeeing and lysosomal staining with a lysotracker. […] The cells were incubated for another 24 h, harvested using a cell scraper, and counted. […]

[3] = test system: A549 (human lung carcinoma) cells
Procedure: (§1) Human lung carcinoma (A549), mouse melanoma (B16), mouse colon carcinoma (CT26), human breast adenocarcinoma (MDA-MB-231), and human glioblastoma (U87MG) cell lines were maintained in Roswell Park Memorial Institute (RPMI)-1640 medium (Fujifilm Wako Pure Chemicals Co., Ltd., Japan) supplemented with 10% heat-inactivated fetal bovine serum (Thermo Fisher Scientific, Inc.) and 1% penicillin/streptomycin (final concentrations: 100 units/mL penicillin G and 10 μg/mL streptomycin; Thermo Fisher Scientific, Inc.). The cells were cultured at 37 °C in a humidified incubator with 5% CO2. For experiments, A549, B16, CT26, MDA-MB-231, and U87MG cells were seeded into 96-well plates at a density of 1000 cells per well. […] Following treatment, 0.5 mg/mL 3-(4,5-dimethylthiazol-2-yl)-2,5-diphenyltetrazolium bromide (MTT; Tokyo Chemical Industry Co., Ltd., Japan) was added to each well, and the plates were incubated for 4 h at 37 °C. After incubation, the medium was carefully removed, and the resulting MTT formazan product was dissolved in 100 μL of dimethyl sulfoxide (DMSO). The absorbance of the solution was measured at 590 nm using a microplate reader. The half-maximal inhibitory concentration (IC50) for each compound was calculated from semilogarithmic dose–response curves.

[4] = test system: B16 (mouse melanoma) cells
Procedure: as §1

[5] = test system: CT26 (mouse colon carcinoma) cells
Procedure: as §1

[6] = test system: MDA-MB-231 (human breast adenocarcinoma) cells
Procedure: as §1

[7] = test system: U87MG (human glioblastoma) cells
Procedure: as §1

[8] = target: human serum albumin (HSA) (Homo sapiens, UniProt P02768); set-up: method as in PMID 38770220; settings: ELISA, Figure S1; stated as previously reported value; read-out: dissociation constant (Kd) to HSA; cited from earlier work
Chain of human serum albumin (HSA) (P02768 25-609): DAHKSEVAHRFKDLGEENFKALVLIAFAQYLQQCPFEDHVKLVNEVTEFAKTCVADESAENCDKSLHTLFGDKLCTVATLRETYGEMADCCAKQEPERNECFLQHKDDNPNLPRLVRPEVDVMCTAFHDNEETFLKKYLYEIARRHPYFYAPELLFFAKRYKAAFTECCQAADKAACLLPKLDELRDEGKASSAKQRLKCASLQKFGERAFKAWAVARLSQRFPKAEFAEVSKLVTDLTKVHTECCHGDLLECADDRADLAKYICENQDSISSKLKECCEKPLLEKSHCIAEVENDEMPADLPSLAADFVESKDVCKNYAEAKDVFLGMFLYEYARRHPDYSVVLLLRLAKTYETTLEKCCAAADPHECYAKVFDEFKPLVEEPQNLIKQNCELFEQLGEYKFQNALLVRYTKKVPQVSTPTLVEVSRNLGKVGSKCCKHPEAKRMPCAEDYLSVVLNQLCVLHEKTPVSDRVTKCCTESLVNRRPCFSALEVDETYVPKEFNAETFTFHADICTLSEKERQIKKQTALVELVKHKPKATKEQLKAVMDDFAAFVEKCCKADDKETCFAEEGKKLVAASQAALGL

[9] = test system: CT26 tumor-bearing mice; assay: BNCT efficacy in CT26 tumor-bearing mice; format: in vivo, mouse; settings: i.v. 15 mg [10B]/kg, neutron irradiation 3 h later
Procedure: Figure 4 (A–D) Biodistribution of boron in the CT26-bearing mice at 3, 6, and 12 h post- intravenous injection of (A) BBC-IP, (B) BBC, (C) BBC-IP-HSA and (D) BPA at the dose of 15 mg [B]/kg. The data are shown as mean ± SEM (n = 3–4). (E, F) BNCT of the CT26 tumor-bearing mice intravenously injected with 15 mg [^10B]/kg of BBC-IP-HSA and BPA. (E) The tumor volume curves after thermal neutron irradiation (also see Figure S5, Supporting Information). (F) Mice body weight corresponding to the treatments in panel (E). Results are shown as the mean ± SEM (n = 5 for the groups with BBC-IP-HSA, BPA and no treatment, n = 4 for the groups with neutron only). The two-sided Student’s t-test was applied to determine statistical significance, defined as *p < 0.05, **p < 0.0001.
CT26 tumor-bearing mice were prepared by subcutaneously injecting a suspension of CT26 cells (8.0 × 10^5 cells/mouse) into the right thigh. […] The BNCT effects were assessed based on tumor volume changes. Tumor volume was calculated using the formula 0.5 × (A × B^2), where A and B represent the longest and shortest tumor diameters in millimeters, respectively. […]
(B) Body weight of the same mice treated in panel A. (C) The tumor volume curves of the individual mice after irradiation with thermal neutron. […] Significance was determined as: *p < 0.05, **p < 0.0001 using the two-sided […]

[10] = MTT cytotoxicity assay; settings: human, A549 cells (human lung carcinoma)
Procedure: as §1

[11] = MTT cytotoxicity assay; settings: mouse, B16 cells (mouse melanoma)
Procedure: as §1

[12] = MTT cytotoxicity assay; settings: mouse, CT26 cells (mouse colon carcinoma)
Procedure: as §1

[13] = MTT cytotoxicity assay; settings: human, MDA-MB-231 cells (human breast adenocarcinoma)
Procedure: as §1

[14] = MTT cytotoxicity assay; settings: human, U87MG cells (human glioblastoma)
Procedure: as §1

Compound: O=C(O)CCCC[C@@H]1SC[C@@H]2NC(=O)N[C@@H]21 [biotin]
water solubility [1]: approximately 0.9 mM

IC50 [3]: > 1 mM | IC50 [4]: > 1 mM | IC50 [5]: > 1 mM | IC50 [6]: > 1 mM | IC50 [7]: > 1 mM
Compound: biotin-closo-dodecaborate conjugate [BBC]
decrease of accumulation under biotin competitive conditions (up to) [2]: ~20%

Compound: pteroyl-closo-dodecaborate conjugated with a 4-(p-iodophenyl)butyric acid moiety [PBC-IP]
Kd [8]: 0.0117 ± 0.0008 mM

Compound: N[C@@H](Cc1ccc(B(O)O)cc1)C(=O)O [BPA, 4-borono-L-phenylalanine, reference compound]
decrease of accumulation under biotin competitive conditions (up to) [2]: largely unaffected | antitumor efficacy / tumor growth compared between agents ([9]; 20-day monitoring): significantly higher antitumor efficacy than BBC-IP-HSA | tumor suppression versus neutron-only group ([9]; 20 days after irradiation): significantly greater tumor suppression compared to the neutron-only group | IC50 at 72 h [10]: > 1 mM | IC50 at 72 h [11]: 0.91 ± 0.13 mM | IC50 at 72 h [12]: > 1 mM | IC50 at 72 h [13]: > 1 mM | IC50 at 72 h [14]: > 1 mM
